Biological target: T1, BTK (Homo sapiens, UniProt Q06187)
T1 construct: endogenous in cells; host or cells: Mino cells
Assay: BTK degradation activity test in Mino cells
Type: cell-based
Details: 16 h incubation, Western blot or Elisa
Method: Mino cell line cells were seeded at 500,000 to 1,000,000 cells/well in a 6-well plate. The compounds were diluted to different concentrations and added to the plate, and after 16 h of incubation, cells were harvested. After lysing the cells, the total protein concentration in each well was determined using the BCA method. The amount of BTK was determined using Western blot or Elisa method. The amount of undegraded BTK protein at each drug concentration was compared with the amount of BTK protein in the blank control group to calculate the degradation rate. The degradation curve was drawn based on the degradation rate at each concentration, and the half degradation concentration (DC50) was calculated by fitting.

T1 sequence (Q06187 whole entry): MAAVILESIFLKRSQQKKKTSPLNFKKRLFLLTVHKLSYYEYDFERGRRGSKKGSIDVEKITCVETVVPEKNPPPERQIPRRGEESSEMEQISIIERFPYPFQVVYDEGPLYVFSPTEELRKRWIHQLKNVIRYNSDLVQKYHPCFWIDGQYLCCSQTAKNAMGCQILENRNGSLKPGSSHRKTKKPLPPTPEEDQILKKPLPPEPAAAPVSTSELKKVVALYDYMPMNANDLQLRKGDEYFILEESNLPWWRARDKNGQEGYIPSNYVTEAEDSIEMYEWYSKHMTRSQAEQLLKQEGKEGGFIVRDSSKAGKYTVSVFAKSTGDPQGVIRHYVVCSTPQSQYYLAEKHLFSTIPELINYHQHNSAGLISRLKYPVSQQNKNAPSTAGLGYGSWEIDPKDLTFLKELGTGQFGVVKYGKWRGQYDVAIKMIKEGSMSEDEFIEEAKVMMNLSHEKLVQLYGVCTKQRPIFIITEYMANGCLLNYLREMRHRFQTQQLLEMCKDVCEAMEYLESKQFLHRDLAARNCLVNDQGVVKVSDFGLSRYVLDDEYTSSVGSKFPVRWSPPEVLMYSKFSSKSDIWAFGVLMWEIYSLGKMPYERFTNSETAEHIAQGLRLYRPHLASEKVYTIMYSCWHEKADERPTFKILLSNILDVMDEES

DC50 | SMILES
< 1 nM | NC(=O)c1ncc(N2CCCC(N3CCN(C4COC4)C3=O)C2)nc1Nc1ccc2c(c1)CCN(CC1CCN(c3ccc4c(c3)C(=O)N(C3CCC(=O)NC3=O)C4=O)CC1)C2 (stereo not drawn) [Compound 031, 3-((2-((1-(2-(2,6-dioxopiperidin-3-yl)-1,3-dioxoisoindol-5-yl)piperidin-4-yl)methyl)-1,2,3,4-tetrahydroisoquinolin-6-yl)amino)-5-(3-(3-(oxetan-3-yl)-2-oxoimidazolin-1-yl)piperidin-1-yl)pyrazin-2-carboxamide]
< 1 nM | NC(=O)c1ncc(N2CCCC(N3CCN(C4COC4)C3=O)C2)nc1Nc1ccc2c(c1)CCN(CC1CN(c3ccc4c(c3)C(=O)N(C3CCC(=O)NC3=O)C4=O)C1)C2 (stereo not drawn) [Compound 032, 3-((2-((1-(2-(2,6-dioxopiperidin-3-yl)-1,3-dioxoisoindol-5-yl)azetidine-3-yl)methyl)-1,2,3,4-tetrahydroisoquinolin-6-yl)amino)-5-(3-(3-(oxetan-3-yl)-2-oxyimidazolin-1-yl)piperidin-1-yl)pyrazin-2-carboxamide]
< 1 nM | NC(=O)c1ncc(N2CCCC(N3CCN(C4CCCC4)C3=O)C2)nc1Nc1ccc2c(c1)CCN(CC1CN(c3ccc4c(c3)C(=O)N(C3CCC(=O)NC3=O)C4=O)C1)C2 (stereo not drawn) [Compound 033, 5-(3-(3-cyclopentyl-2-oxoimidazolin-1-yl)piperidin-1-yl)-3-((2-((1-(2-(2,6-dioxopiperidin-3-yl)-1,3-dioxoisoindol-5-yl)azetidin-3-yl)methyl)-1,2,3,4-tetrahydroisoquinolin-6-yl)amino)pyrazin-2-carboxamide]
< 1 nM | CC1(c2ccc(Nc3nc(N4CCCC(N5CCN(C6CCCC6)C5=O)C4)cnc3C(N)=O)cc2)CCN(CC2CCN(c3ccc4c(c3)C(=O)N(C3CCC(=O)NC3=O)C4=O)C2)CC1 (stereo not drawn) [Compound 034, 5-(3-(3-cyclopentyl-2-oxoimidazolin-1-yl)piperidin-1-yl)-3-((4-(1-((1-(2-(2,6-dioxopiperidin-3-yl)-1,3-dioxoisoindolin-5-yl)pyrrolidin-3-yl)methyl)-4-methylpiperidin-4-yl)phenyl)amino)pyrazin-2-carboxamide]
< 1 nM | CN1CCN(C2CCCN(c3nnc(C(N)=O)c(Nc4ccc(C5(C)CCN(CC6CCN(c7ccc8c(c7)C(=O)N(C7CCC(=O)NC7=O)C8=O)C6)CC5)cc4)n3)C2)C1=O (stereo not drawn) [Compound 035, 5-((4-(1-((1-(2-(2,6-dioxopiperidin-3-yl)-1,3-dioxoisoindolin-5-yl)pyrrolidin-3-yl)methyl)-4-methylpiperidin-4-yl)phenyl)amino)-3-(3-(3-methyl-2-oxoimidazolin-1-yl)piperidin-1-yl)-1,2,4-triazin-6-carboxamide]
< 1 nM | CN1CCN(C2CCCN(c3ncc(C(N)=O)c(Nc4ccc(C5(C)CCN(CC6CCN(c7ccc8c(c7)C(=O)N(C7CCC(=O)NC7=O)C8=O)C6)CC5)cc4)n3)C2)C1=O (stereo not drawn) [Compound 036, 4-((4-(1-((1-(2-(2,6-dioxopiperidin-3-yl)-1,3-dioxoisoindolin-5-yl)pyrrolidin-3-yl)methyl)-4-methylpiperidin-4-yl)phenyl)amino)-2-(3-(3-methyl-2-oxoimidazolin-1-yl)piperidin-1-yl)pyrimidin-5-carboxamide]
> 1 nM | CN1CCN(C2CCCN(c3nc(Nc4ccc(C5(C)CCN(CC6CCN(c7ccc8c(c7)C(=O)N(C7CCC(=O)NC7=O)C8=O)C6)CC5)cc4)c(C(N)=O)cc3F)C2)C1=O (stereo not drawn) [Compound 037, 2-((4-(1-((1-(2-(2,6-dioxopiperidin-3-yl)-1,3-dioxoisoindolin-5-yl)pyrrolidin-3-yl)methyl)-4-methylpiperidin-4-yl)phenyl)amino)-5-fluoro-6-(3-(3-methyl-2-oxoimidazolin-1-yl)piperidin-1-yl)nicotinamide]
< 1 nM | COc1cc(C(N)=O)c(Nc2ccc(C3(C)CCN(CC4CCN(c5ccc6c(c5)C(=O)N(C5CCC(=O)NC5=O)C6=O)C4)CC3)cc2)nc1N1CCCC(N2CCN(C)C2=O)C1 (stereo not drawn) [Compound 038, 2-((4-(1-((1-(2-(2,6-dioxopiperidin-3-yl)-1,3-dioxoisoindolin-5-yl)pyrrolidin-3-yl)methyl)-4-methylpiperidin-4-yl)phenyl)amino)-5-methoxy-6-(3-(3-methyl-2-oxoimidazolin-1-yl)piperidin-1-yl)nicotinamide]
< 1 nM | NC(=O)c1ncc(N2CCCC(N3CCN(C4CCCC4)C3=O)C2)nc1Nc1ccc(C2CCN(CC3CCN(c4ccc5c(c4)C(=O)N(C4CCC(=O)NC4=O)C5=O)C3)CC2)cc1 (stereo not drawn) [Compound 039, 5-(3-(3-cyclopentyl-2-oxoimidazolin-1-yl)piperidin-1-yl)-3-((4-(1-((1-(2-(2,6-dioxopiperidin-3-yl)-1,3-dioxoisoindolin-5-yl)pyrrolidin-3-yl)methyl)piperidin-4-yl)phenyl)amino)pyrazin-2-carboxamide]
< 1 nM | NC(=O)c1ncc(N2CCCC(N3CCN(C4CCCC4)C3=O)C2)nc1Nc1ccc(C2(F)CCN(CC3CCN(c4ccc5c(c4)C(=O)N(C4CCC(=O)NC4=O)C5=O)C3)CC2)cc1 (stereo not drawn) [Compound 040, 5-(3-(3-cyclopentyl-2-oxoimidazolin-1-yl)piperidin-1-yl)-3-((4-(1-((1-(2-(2,6-dioxopiperidin-3-yl)-1,3-dioxoisoindolin-5-yl)pyrrolidin-3-yl)methyl)-4-fluoropiperidin-4-yl)phenyl)amino)pyrazin-2-carboxamide]
< 1 nM | NC(=O)c1ncc(N2CCCC(N3CCN(C4CCCC4)C3=O)C2)nc1Nc1ccc(C2CCN(CC3CCN(c4ccc5c(c4)C(=O)N(C4CCC(=O)NC4=O)C5=O)C3)CC2)cc1F (stereo not drawn) [Compound 041, 5-(3-(3-cyclopentyl-2-oxoimidazolin-1-yl)piperidin-1-yl)-3-((4-(1-((1-(2-(2,6-dioxopiperidin-3-yl)-1,3-dioxoisoindolin-5-yl)pyrrolidin-3-yl)methyl)piperidin-4-yl)-2-fluorophenyl)amino)pyrazin-2-carboxamide]
< 1 nM | N#Cc1cc(Nc2nc(N3CCCC(N4CCN(C5CCCC5)C4=O)C3)cnc2C(N)=O)ccc1C1CCN(CC2CCN(c3ccc4c(c3)C(=O)N(C3CCC(=O)NC3=O)C4=O)C2)CC1 (stereo not drawn) [Compound 042, 3-((3-cyano-4-(1-((1-(2-(2,6-dioxopiperidin-3-yl)-1,3-dioxoisoindolin-5-yl)pyrrolidin-3-yl)methyl)piperidin-4-yl)phenyl)amino)-5-(3-(3-cyclopentyl-2-oxoimidazolin-1-yl)piperidin-1-yl)pyrazin-2-carboxamide]
> 1 nM | NC(=O)c1ncc(N2CCCC(N3CCN(C4CCCC4)C3=O)C2)nc1Nc1ccc(C2CCN(CC3CCN(c4ccc5c(c4)C(=O)N(C4CCC(=O)NC4=O)C5=O)C3)CC2F)cc1 (stereo not drawn) [Compound 043, 5-(3-(3-cyclopentyl-2-oxoimidazolin-1-yl)piperidin-1-yl)-3-((4-(1-((1-(2-(2,6-dioxopiperidin-3-yl)-1,3-dioxoisoindolin-5-yl)pyrrolidin-3-yl)methyl)-3-fluoropiperidin-4-yl)phenyl)amino)pyrazin-2-carboxamide]
< 1 nM | CN1C(=O)N(C2CCCN(c3cnc(C(N)=O)c(Nc4ccc(C5CCN(CC6CCN(c7ccc8c(c7)C(=O)N(C7CCC(=O)NC7=O)C8=O)C6)CC5)cc4)n3)C2)CC12CC2 (stereo not drawn) [Compound 044, 3-((4-(1-((1-(2-(2,6-dioxopiperidin-3-yl)-1,3-dioxoisoindolin-5-yl)pyrrolidin-3-yl)methyl)piperidin-4-yl)phenyl)amino)-5-(3-(4-methyl-5-oxo-4,6-diazaspiro[2.4]cycloheptan-6-yl)piperidin-1-yl)pyrazin-2-carboxamide]
< 1 nM | NC(=O)c1ncc(N2CCCC(N3CC4CCCCN4C3=O)C2)nc1Nc1ccc(C2CCN(CC3CCN(c4ccc5c(c4)C(=O)N(C4CCC(=O)NC4=O)C5=O)C3)CC2)cc1 (stereo not drawn) [Compound 045, 3-((4-(1-((1-(2-(2,6-dioxopiperidin-3-yl)-1,3-dioxoisoindolin-5-yl)pyrrolidin-3-yl)methyl)piperidin-4-yl)phenyl)amino)-5-(3-(3-oxohexahydroimidazo[1,5-a]pyridin-2(3H)-yl)piperidin-1-yl)pyrazin-2-carboxamide]
< 1 nM | CN1CCN(C2CC3CC2N(c2cnc(C(N)=O)c(Nc4ccc(C5CCN(C6CN(c7ccc8c(c7)C(=O)N(C7CCC(=O)NC7=O)C8=O)C6)CC5)cc4)n2)C3)C1=O (stereo not drawn) [Compound 046, 3-((4-(1-(1-(2-(2,6-dioxopiperidin-3-yl)-1,3-dioxoisoindolin-5-yl)azetidin-3-yl)piperidin-4-yl)phenyl)amino)-5-(-6-(3-methyl-2-oxoimidazolin-1-yl)-2-azabicyclo[2.2.1]heptan-2-yl)pyrazin-2-carboxamide]
< 1 nM | CC(C)N1CCN(C2CC3CC2N(c2cnc(C(N)=O)c(Nc4ccc(C5CCN(C6CN(c7ccc8c(c7)C(=O)N(C7CCC(=O)NC7=O)C8=O)C6)CC5)cc4)n2)C3)C1=O (stereo not drawn) [Compound 047, 3-((4-(1-(1-(2-(2,6-dioxopiperidin-3-yl)-1,3-dioxoisoindolin-5-yl)azetidin-3-yl)piperidin-4-yl)phenyl)amino)-5-(-6-(3-isopropyl-2-oxoimidazolin-1-yl)-2-azabicyclo[2.2.1]heptan-2-yl)pyrazin-2-carboxamide]
< 1 nM | CN1CCN(C2CC3CC2N(c2ccc(C(N)=O)c(Nc4ccc(C5CCN(C6CN(c7ccc8c(c7)C(=O)N(C7CCC(=O)NC7=O)C8=O)C6)CC5)cc4)n2)C3)C1=O (stereo not drawn) [Compound 048, 2-((4-(1-(1-(2-(2,6-dioxopiperidin-3-yl)-1,3-dioxoisoindolin-5-yl)azetidin-3-yl)piperidin-4-yl)phenyl)amino)-6-(-6-(3-methyl-2-oxoimidazolin-1-yl)-2-azabicyclo[2.2.1]heptan-2-yl)nicotinamide]

— US20240360146A1, “BRUTON'S TYROSINE KINASE AND MUTANT DEGRADER, COMPOSITION AND APPLICATION THEREOF” (HANGZHOU HEALZEN THERAPEUTICS CO., LTD., priority 2021, published 2024)
